# Data reported in ChEMBL document CHEMBL5444388, “Affinity Phenotypic Cellular Literature for EUbOPEN Chemogenomic Library” (2024).
# Tests used:
# Assay type in all cases: functional, cell-based
# Parameters in all cases: recommended concentration 100 nM
# [1] = target: Centromere-associated protein E (Homo sapiens) (UniProt Q02224); test: Affinity Phenotypic Cellular interaction: (Cell-growth inhibition assays (growth inhibitory effect colon cancer cell line MIA PaCa-2)) EUB0000734a CENPE; settings: Affinity Phenotypic Cellular Source Knowledge https://pubmed.ncbi.nlm.nih.gov/20167803/
# Centromere-associated protein E (Homo sapiens), sequence (Q02224 whole entry): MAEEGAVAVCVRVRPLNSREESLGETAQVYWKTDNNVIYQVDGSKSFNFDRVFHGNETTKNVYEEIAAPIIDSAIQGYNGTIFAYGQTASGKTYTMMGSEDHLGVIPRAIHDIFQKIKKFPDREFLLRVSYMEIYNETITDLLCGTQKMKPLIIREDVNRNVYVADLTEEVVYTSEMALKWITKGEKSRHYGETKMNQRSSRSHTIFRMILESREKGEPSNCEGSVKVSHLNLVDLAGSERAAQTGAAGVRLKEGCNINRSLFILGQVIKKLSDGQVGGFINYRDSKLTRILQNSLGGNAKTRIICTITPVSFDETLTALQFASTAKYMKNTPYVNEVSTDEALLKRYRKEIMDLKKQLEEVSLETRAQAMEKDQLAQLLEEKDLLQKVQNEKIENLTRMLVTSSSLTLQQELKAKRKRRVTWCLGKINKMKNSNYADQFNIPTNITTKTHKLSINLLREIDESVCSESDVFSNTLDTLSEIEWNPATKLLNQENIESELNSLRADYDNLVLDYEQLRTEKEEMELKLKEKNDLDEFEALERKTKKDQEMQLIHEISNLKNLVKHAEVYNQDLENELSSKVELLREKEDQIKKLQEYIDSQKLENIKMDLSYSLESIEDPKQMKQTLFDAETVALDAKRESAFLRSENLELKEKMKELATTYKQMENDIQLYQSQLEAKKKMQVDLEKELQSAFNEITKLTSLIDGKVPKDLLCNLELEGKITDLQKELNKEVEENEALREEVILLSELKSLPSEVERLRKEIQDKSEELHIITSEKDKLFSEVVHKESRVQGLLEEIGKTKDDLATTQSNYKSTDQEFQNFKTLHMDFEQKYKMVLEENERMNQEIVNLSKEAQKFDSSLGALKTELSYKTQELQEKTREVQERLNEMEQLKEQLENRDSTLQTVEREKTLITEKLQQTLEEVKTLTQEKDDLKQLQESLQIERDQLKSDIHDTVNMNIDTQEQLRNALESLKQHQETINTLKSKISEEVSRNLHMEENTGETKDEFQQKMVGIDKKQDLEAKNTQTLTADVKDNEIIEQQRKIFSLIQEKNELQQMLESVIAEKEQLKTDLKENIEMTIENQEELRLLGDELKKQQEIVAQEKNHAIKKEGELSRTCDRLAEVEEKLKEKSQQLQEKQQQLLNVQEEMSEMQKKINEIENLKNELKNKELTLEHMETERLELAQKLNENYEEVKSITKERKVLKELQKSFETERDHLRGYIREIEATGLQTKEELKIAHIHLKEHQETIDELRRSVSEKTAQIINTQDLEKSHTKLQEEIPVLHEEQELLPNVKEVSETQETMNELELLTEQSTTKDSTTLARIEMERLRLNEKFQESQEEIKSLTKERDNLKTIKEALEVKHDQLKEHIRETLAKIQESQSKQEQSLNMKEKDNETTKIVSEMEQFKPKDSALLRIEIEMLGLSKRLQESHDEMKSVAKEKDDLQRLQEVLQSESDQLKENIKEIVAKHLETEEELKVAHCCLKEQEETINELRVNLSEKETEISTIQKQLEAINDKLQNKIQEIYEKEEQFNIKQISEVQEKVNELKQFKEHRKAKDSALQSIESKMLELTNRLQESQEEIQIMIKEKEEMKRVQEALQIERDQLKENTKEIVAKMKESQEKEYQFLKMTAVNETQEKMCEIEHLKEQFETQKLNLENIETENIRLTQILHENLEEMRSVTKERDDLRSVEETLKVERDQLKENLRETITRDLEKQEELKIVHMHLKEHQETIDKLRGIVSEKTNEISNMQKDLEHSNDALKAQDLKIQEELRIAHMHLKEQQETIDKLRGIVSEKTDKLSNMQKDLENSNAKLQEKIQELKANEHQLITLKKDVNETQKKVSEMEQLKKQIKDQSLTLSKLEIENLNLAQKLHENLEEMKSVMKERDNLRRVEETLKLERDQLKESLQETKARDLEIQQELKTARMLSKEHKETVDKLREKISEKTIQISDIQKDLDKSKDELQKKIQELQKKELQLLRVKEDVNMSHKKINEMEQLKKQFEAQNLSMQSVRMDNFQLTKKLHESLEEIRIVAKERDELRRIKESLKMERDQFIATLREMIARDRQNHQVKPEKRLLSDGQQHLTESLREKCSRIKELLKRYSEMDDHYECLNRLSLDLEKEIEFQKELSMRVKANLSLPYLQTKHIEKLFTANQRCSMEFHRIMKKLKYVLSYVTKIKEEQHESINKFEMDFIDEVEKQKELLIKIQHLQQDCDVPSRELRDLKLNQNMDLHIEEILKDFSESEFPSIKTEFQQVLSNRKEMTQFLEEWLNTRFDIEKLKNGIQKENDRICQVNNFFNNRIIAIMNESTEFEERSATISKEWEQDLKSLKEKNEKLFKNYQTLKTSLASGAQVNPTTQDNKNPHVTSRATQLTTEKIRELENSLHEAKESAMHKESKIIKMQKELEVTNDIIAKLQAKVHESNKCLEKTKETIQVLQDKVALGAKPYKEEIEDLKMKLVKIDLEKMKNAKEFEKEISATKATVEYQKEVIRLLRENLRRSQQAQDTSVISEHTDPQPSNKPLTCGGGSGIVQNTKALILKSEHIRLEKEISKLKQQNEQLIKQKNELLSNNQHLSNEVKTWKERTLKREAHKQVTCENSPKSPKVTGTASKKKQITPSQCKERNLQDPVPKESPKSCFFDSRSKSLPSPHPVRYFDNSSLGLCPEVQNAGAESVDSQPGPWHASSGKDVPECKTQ
# [2] = target: Centromere-associated protein E (Homo sapiens) (UniProt Q02224); test: Affinity Phenotypic Cellular interaction: (Cell-growth inhibition assays (growth inhibitory effect colon cancer cell line NCI/ADR-RES)) EUB0000734a CENPE; settings: Affinity Phenotypic Cellular Source Knowledge https://pubmed.ncbi.nlm.nih.gov/20167803/
# [3] = target: Centromere-associated protein E (Homo sapiens) (UniProt Q02224); test: Affinity Phenotypic Cellular interaction: (Cell-growth inhibition assays (growth inhibitory effect colon cancer cell line K-562)) EUB0000734a CENPE; settings: K562, Affinity Phenotypic Cellular Source Knowledge https://pubmed.ncbi.nlm.nih.gov/20167803/
# [4] = target: Centromere-associated protein E (Homo sapiens) (UniProt Q02224); test: Affinity Phenotypic Cellular interaction: (Cell-growth inhibition assays (growth inhibitory effect colon cancer cell line A2780)) EUB0000734a CENPE; settings: Affinity Phenotypic Cellular Source Knowledge https://pubmed.ncbi.nlm.nih.gov/20167803/
# [5] = target: Centromere-associated protein E (Homo sapiens) (UniProt Q02224); test: Affinity Phenotypic Cellular interaction: (Cell-growth inhibition assays (growth inhibitory effect colon cancer cell line NCI-H292)) EUB0000734a CENPE; settings: Affinity Phenotypic Cellular Source Knowledge https://pubmed.ncbi.nlm.nih.gov/20167803/
# [6] = target: Centromere-associated protein E (Homo sapiens) (UniProt Q02224); test: Affinity Phenotypic Cellular interaction: (Cell-growth inhibition assays (growth inhibitory effect colon cancer cell line RL)) EUB0000734a CENPE; settings: Affinity Phenotypic Cellular Source Knowledge https://pubmed.ncbi.nlm.nih.gov/20167803/
# [7] = target: Centromere-associated protein E (Homo sapiens) (UniProt Q02224); test: Affinity Phenotypic Cellular interaction: (Cell-growth inhibition assays (growth inhibitory effect colon cancer cell line LNCaP)) EUB0000734a CENPE; settings: Affinity Phenotypic Cellular Source Knowledge https://pubmed.ncbi.nlm.nih.gov/20167803/
# [8] = target: Centromere-associated protein E (Homo sapiens) (UniProt Q02224); test: Affinity Phenotypic Cellular interaction: (Cell-growth inhibition assays (growth inhibitory effect colon cancer cell line HN5)) EUB0000734a CENPE; settings: Affinity Phenotypic Cellular Source Knowledge https://pubmed.ncbi.nlm.nih.gov/20167803/
# [9] = target: Centromere-associated protein E (Homo sapiens) (UniProt Q02224); test: Affinity Phenotypic Cellular interaction: (Cell-growth inhibition assays (growth inhibitory effect breast cancer cell line MT-3)) EUB0000734a CENPE; settings: Affinity Phenotypic Cellular Source Knowledge https://pubmed.ncbi.nlm.nih.gov/20167803/
# [10] = target: Centromere-associated protein E (Homo sapiens) (UniProt Q02224); test: Affinity Phenotypic Cellular interaction: (Cell-growth inhibition assays (growth inhibitory effect colon cancer cell line SW1463)) EUB0000734a CENPE; settings: Affinity Phenotypic Cellular Source Knowledge https://pubmed.ncbi.nlm.nih.gov/20167803/
# [11] = target: Centromere-associated protein E (Homo sapiens) (UniProt Q02224); test: Affinity Phenotypic Cellular interaction: (Cell-growth inhibition assays (growth inhibitory effect colon cancer cell line G-401)) EUB0000734a CENPE; settings: Affinity Phenotypic Cellular Source Knowledge https://pubmed.ncbi.nlm.nih.gov/20167803/
# [12] = target: Centromere-associated protein E (Homo sapiens) (UniProt Q02224); test: Affinity Phenotypic Cellular interaction: (Cell-growth inhibition assays (growth inhibitory effect colon cancer cell line EFM-19)) EUB0000734a CENPE; settings: Affinity Phenotypic Cellular Source Knowledge https://pubmed.ncbi.nlm.nih.gov/20167803/
# [13] = target: Centromere-associated protein E (Homo sapiens) (UniProt Q02224); test: Affinity Phenotypic Cellular interaction: (Cell-growth inhibition assays (growth inhibitory effect colon cancer cell line 786-O)) EUB0000734a CENPE; settings: 786-0, Affinity Phenotypic Cellular Source Knowledge https://pubmed.ncbi.nlm.nih.gov/20167803/
# [14] = target: Centromere-associated protein E (Homo sapiens) (UniProt Q02224); test: Affinity Phenotypic Cellular interaction: (Cell-growth inhibition assays (growth inhibitory effect colon cancer cell line U251)) EUB0000734a CENPE; settings: U-251, Affinity Phenotypic Cellular Source Knowledge https://pubmed.ncbi.nlm.nih.gov/20167803/
# [15] = target: Centromere-associated protein E (Homo sapiens) (UniProt Q02224); test: Affinity Phenotypic Cellular interaction: (Cell-growth inhibition assays (growth inhibitory effect colon cancer cell line SHP-77)) EUB0000734a CENPE; settings: SHP77, Affinity Phenotypic Cellular Source Knowledge https://pubmed.ncbi.nlm.nih.gov/20167803/
# [16] = target: Centromere-associated protein E (Homo sapiens) (UniProt Q02224); test: Affinity Phenotypic Cellular interaction: (Cell-growth inhibition assays (growth inhibitory effect colon cancer cell line G-402)) EUB0000734a CENPE; settings: Affinity Phenotypic Cellular Source Knowledge https://pubmed.ncbi.nlm.nih.gov/20167803/
# [17] = target: Centromere-associated protein E (Homo sapiens) (UniProt Q02224); test: Affinity Phenotypic Cellular interaction: (Cell-growth inhibition assays (growth inhibitory effect colon cancer cell line COLO 201)) EUB0000734a CENPE; settings: Affinity Phenotypic Cellular Source Knowledge https://pubmed.ncbi.nlm.nih.gov/20167803/
# [18] = target: Centromere-associated protein E (Homo sapiens) (UniProt Q02224); test: Affinity Phenotypic Cellular interaction: (Cell-growth inhibition assays (growth inhibitory effect colon cancer cell line HT-29)) EUB0000734a CENPE; settings: Affinity Phenotypic Cellular Source Knowledge https://pubmed.ncbi.nlm.nih.gov/20167803/
# [19] = target: Centromere-associated protein E (Homo sapiens) (UniProt Q02224); test: Affinity Phenotypic Cellular interaction: (Cell-growth inhibition assays (growth inhibitory effect colon cancer cell line MOLT-16)) EUB0000734a CENPE; settings: Affinity Phenotypic Cellular Source Knowledge https://pubmed.ncbi.nlm.nih.gov/20167803/
# [20] = target: Centromere-associated protein E (Homo sapiens) (UniProt Q02224); test: Affinity Phenotypic Cellular interaction: (Cell-growth inhibition assays (growth inhibitory effect colon cancer cell line HT-3)) EUB0000734a CENPE; settings: Affinity Phenotypic Cellular Source Knowledge https://pubmed.ncbi.nlm.nih.gov/20167803/
# [21] = target: Centromere-associated protein E (Homo sapiens) (UniProt Q02224); test: Affinity Phenotypic Cellular interaction: (Cell-growth inhibition assays (growth inhibitory effect colon cancer cell line Y79)) EUB0000734a CENPE; settings: Affinity Phenotypic Cellular Source Knowledge https://pubmed.ncbi.nlm.nih.gov/20167803/
# [22] = target: Centromere-associated protein E (Homo sapiens) (UniProt Q02224); test: Affinity Phenotypic Cellular interaction: (Cell-growth inhibition assays (growth inhibitory effect colon cancer cell line COLO205)) EUB0000734a CENPE; settings: COLO 205, Affinity Phenotypic Cellular Source Knowledge https://pubmed.ncbi.nlm.nih.gov/20167803/
# [23] = target: Centromere-associated protein E (Homo sapiens) (UniProt Q02224); test: Affinity Phenotypic Cellular interaction: (Cell-growth inhibition assays (growth inhibitory effect colon cancer cell line T24)) EUB0000734a CENPE; settings: T-24, Affinity Phenotypic Cellular Source Knowledge https://pubmed.ncbi.nlm.nih.gov/20167803/
structure (smiles),measurement,setting,value
CC(C)Oc1ccc(C(=O)N[C@H](CNC(=O)CN(C)C)Cc2ccc(-c3cn4cccc([C@H](C)O)c4n3)cc2)cc1Cl,GIC50,[1],23 nM
same,GIC50,[2],3.96 µM
same,GIC50,[3],25 nM
same,GIC50,[4],13 nM
same,GIC50,[5],31 nM
same,GIC50,[6],37 nM
same,GIC50,[7],76 nM
same,GIC50,[8],118 nM
same,GIC50,[9],41 nM
same,GIC50,[10],31 nM
same,GIC50,[11],26 nM
same,GIC50,[12],28 nM
same,GIC50,[13],45 nM
same,GIC50,[14],26 nM
same,GIC50,[15],86 nM
same,GIC50,[16],31 nM
same,GIC50,[17],24 nM
same,GIC50,[18],14 nM
same,GIC50,[19],47 nM
same,GIC50,[20],10 µM
same,GIC50,[21],70 nM
same,GIC50,[22],25 nM
same,GIC50,[23],45 nM
